The source of these data is publication PMC8434099, “Selected Drug-Likeness Properties of 2-Arylidene-indan-1,3-dione Derivatives—Chemical Compounds with Potential Anti-Cancer Activity” (Molecules, 2021).

The structures appear in SMILES notation.

A short description of series [1]: Chromatographic (RP-HPLC) examination of lipophilicity, Snyder–Soczewiński model. Type of series: physicochemical. The following applies: for logkw (ACN) / logkw (MeOH): RP-HPLC, extrapolated Snyder–Soczewiński curve; for logkw (ACN) / −S (ACN): acetonitrile as organic modifier; for logkw (MeOH) / −S (MeOH): methanol as organic modifier; for Δ = |logkw-MeOH − logkw-ACN|: difference of logkw between modifiers; for −S (ACN) / −S (MeOH): slope of the Snyder–Soczewiński regression curve; for Compliance with the lipophilicity assumption of the Lipiński’s rule (logkw below 5): analyses using methanol as a modifier. The method, then:
The chromatographic analysis was carried out on a Shimadzu device equipped with a pump system (LC-20AD model), a detector with a diode bench (SPD-M20A model), a degasser (DGU-20A 5R model), a chromatographic oven (CTO-10AS VP), autosampler (SIL-20AC HT model), and chromatographic column (LiChrospher 100 RP-18, 5 μm, Poznań, Poland). Analyses were performed, leading to a multicratic elution. The mobile phase was methanol (J. T. Backer, Phillipsburg, NJ, USA) or acetonitrile (J. T. Backer) and water (Hydrolab, HPL5UV model, Straszyn, Poland) in different volume ratios. In individual analyses, the concentration of the organic modifier expressed as a […] was 0.75–0.95 with a constant step of 0.05. The test compounds were dissolved in methanol. The injection volume was 10 µL. The flow was set at 1 mL/min, the temperature of the chromatography oven at 25 °C, and the detector temperature at 2 °C higher than the ambient temperature. Compounds were detected in the range 190–800 nm. All samples were tested in duplicate at least. Column dead time (tM) was determined using uracil (Sigma Aldrich). The retention coefficient was calculated using the following formula:(1) k=tR/tM−1, where tR is the retention time of the test compound in a given eluent composition, and tM is the chromatographic column dead time.
The value of lipophilicity was determined using the linear dependence of the decimal logarithm from the retention coefficient (logk) and the concentration of the organic modifier in the mobile phase, which was expressed as a volume fraction. For this purpose, the following formula was used:(2) logk=logkw+Sφ, where logk is the decimal logarithm of the retention coefficient, logkw is the value obtained by extrapolating the curve, S is the slope of the regression curve, and φ is the volume fraction of the organic modifier.
The coefficient of determination (R^2) was also calculated for the prepared curves.

Series [2] relates to Human Serum Albumin (HSA). Nature of the series: Binding to albumin, fluorescence quenching. Particulars: calculated from association constant KS for albumin concentration in blood of 44 mg/mL (660 μM); for fraction unbound: human, human serum albumin solution (10 µM HSA), pH 7.4, read-out: free fraction (albumin). The method, then:
Fluorescence lifetime and fluorescence intensity of HSA solutions were measured using the time-resolved Fluorescence Spectrophotometer Life Spec II (Edinburgh Instruments Ltd., Livingston, UK) with the sub-nanosecond pulsed EPLED diode emitting a light of the wavelength 280 nm. The spectrometer was equipped with electronically cooled photomultiplier Hamamatsu R928 connected with TCC900 PC Card, which incorporates all the electronic modules required for Time-Correlated Single Photon Counting (TCSPC). The fluorescence decays were recorded at an emission wavelength of 350 nm. The data were fitted with an exponential decay to obtain total fluorescence intensity and lifetime. Measurements were performed at room temperature using quartz cuvettes 3.5 × 10 mm. The exposure time of the sample was 30 s. A spectrophotometer Jasco V-550 was used for absorption measurements.
Human Serum Albumin (HSA, 97%) was purchased from Sigma Aldrich. For the fluorescence quenching measurements, the 10 µM PBS solution of HSA at pH 7.4 was prepared, and 10 mM stock solutions of studied compounds were prepared in DMSO (dimethylsulfoxide). The final concentration of studied compounds in HSA solution varied between 0 and 70 µM.
Fluorescence quenching of albumin can be described by the Stern–Volmer Equation [21]: (3) F0/F=KSV[Q]+1, where F0 and F are the fluorescence intensities in the absence and presence of quencher, respectively, [Q] is the concentration of quencher, and KSV is the Stern–Volmer quenching constant.
Due to the fact that a quencher can absorb light at the excitation and/or emission wavelengths, the measured intensity should be corrected according to the Formula [22]:(4) Fobserved=Fcorrect×10^−Aex×dex/2−Aem×dem/2, where Fobserved is the measured fluorescence, Fcorrect is the fluorescence that would be measured in the absence of absorption effect, Aex and Aem are the absorbances of ligand at the excitation (280 nm) and emission wavelength (350 nm), respectively, and dex and dem are the cuvette pathlength in the excitation and emission direction (0.35 cm and 1 cm, respectively).
As the fluorophore can be quenched by collisions or by complex formation with the quencher, there are two types of quenching: dynamic and static. They can be distinguished by lifetime measurements. […] If the quenching is known to be dynamic, then:(5) F0/F=KD[Q]+1=τ0/τ, where τ0 and τ are the lifetimes in the absence and presence of quencher, and KD is the dynamic quenching constant.
In many cases, both static and dynamic quenching occurs for the same fluorophore, then modified Stern–Volmer equation has the form:(6) F0/F=(KD[Q]+1)(KS[Q]+1)=τ0/τ(KS[Q]+1),
The dynamic portion of the quenching (KD[Q] + 1), according to Equation (5), can be determined by lifetime measurements. The portion (KS[Q] + 1) relates to static quenching, and KS is the association constant, which is given by:(7) KS=[F−Q]/[F][Q], where [F−Q] is the concentration of complex fluorophore–quencher, [F] is the concentration of uncomplexed fluorophore (concentration of free HSA molecules), and [Q] is the concentration of quencher.
In this study, the tested compounds were added to the HSA solution, and the fluorescence intensity and lifetime at 350 nm were measured for varying concentrations of ligands. On the basis of absorbance measurements of ligands at 280 nm and 350 nm, the correct fluorescence intensities were estimated using Equation (4). Then, the Stern–Volmer constants, dynamic quenching constants, and association constants of studied compounds were determined using Equations (3), (5) and (6), respectively.
Knowing the value of association constant KS, it is possible to determine the theoretical percentage of the bound and free fraction of the drug for the physiological concentration of albumin. […]

The test system of a further series is A549 cells. Nature of the series: Antiproliferative activity, MTT protocol. Type of series: cell-based, human. The following applies: 0.01 mg/mL, 72 h, relative to control culture. The method, then: Mouse melanoma (B16F10), human lung carcinoma (A549), and human cervix (HeLa) cell lines (kindly gifted by Prof. Tomasz Drewa, a Chair of Urology, Department of Regenerative Medicine, Collegium Medicum, Nicolaus Copernicus University, Bydgoszcz, Poland) were cultivated at 37 °C, controlled CO2 atmosphere (Binder, Tuttlingen, Germany), and high humidity with RPMI cell culture medium (with L-glutamine and sodium bicarbonate, Sigma-Aldrich), supplemented with 10% of fetal bovine serum (FBS, Biowest, Nuaillé, France), as well as antibiotics (penicillin, streptomycin) and antimycotics (amphotericin B) (Sigma-Aldrich). Combretastatin A4 (CA4), doxorubicin (DoX), and […] were purchased from Sigma-Aldrich.
Cells were counted with an automated cell counter (Countess® II FL, Invitrogen by Thermo Fisher Scientific Inc., Waltham, MA, USA). A number of 1 × 10^3 (B16F10, A549) or 2.5 × 10^3 cells were plated in each well of 96-well plate (Nunc Edge 2F, Thermo Fisher Scientific Inc.) and left for 24 h incubation prior to drug administration. After this period, the medium was replaced with a fresh medium containing the drugs (at final concentration of 0.01 mg/mL) and left for incubation for the next 72 h. A solution of thiazol blue tetrazolium (MTT, Sigma-Aldrich) was prepared in PBS at concentration of 5 mg/mL and administrated to the cell culture medium at the volume of 10% of the initial medium volume. After 2 h of incubation, the medium was removed, and crystals of formazan were solubilized in isopropanol (Sigma-Aldrich). Absorbance readout was conducted using plate reader Multiskan Spectrum (Thermo Electron Corporation, Waltham, MA, USA) at 570 nm.
Combretastatin A4 (CA4), doxorubicin (DX), and […] were employed as positive controls. Biological evaluation was performed as three independent experiments; mean response and standard deviation were calculated using Excel software (v. 2013, Microsoft Corporation, Redmond, WA, USA).

With `O=C1C(=Cc2ccccc2)C(=O)c2ccccc21` [Compound 3A, 2-benzylidene-1H-indene-1,3(2H)-dione], in series [1], the “logkw (ACN)” value is on record as 2.2433, the “logkw (MeOH)” value is listed as 3.3210, the “Δ = |logkw-MeOH − logkw-ACN|” value amounted to 1.0777 and the “−S (ACN)” value is given as 2.4449. Further, the “−S (MeOH)” value in series [1] was determined as 3.3278. Also, in series [2], the “bound fraction (albumin)” value was 97% and the fraction unbound was 0.03.
In the case of `CN(C)c1ccc(C=C2C(=O)c3ccccc3C2=O)cc1` [Compound 3B, 2-{[4-(dimethylamino)phenyl]methylidene}-1H-indene-1,3(2H)-dione], in series [1], the “logkw (ACN)” value was 2.2394, the “logkw (MeOH)” value is listed as 3.2790, the “Δ = |logkw-MeOH − logkw-ACN|” value came to 1.0396 and the “−S (ACN)” value was 2.3613. Moreover, the “−S (MeOH)” value in series [1] came to 3.1597. For the same compound, in series [2], the “bound fraction (albumin)” value is 94% and the fraction unbound was 0.06.
On to `COc1ccc(C=C2C(=O)c3ccccc3C2=O)cc1` [Compound 3C, 2-(4-methoxybenzylidene)-1H-indene-1,3(2H)-dione], for which, in series [1], the “logkw (ACN)” value is given as 2.3042, the “logkw (MeOH)” value is 3.3554, the “Δ = |logkw-MeOH − logkw-ACN|” value worked out at 1.0512 and the “−S (ACN)” value was found to be 2.4879. Also, in series [1], the “−S (MeOH)” value is reported as 3.2782. Besides, in series [2], the “bound fraction (albumin)” value was 94% and the fraction unbound is 0.06.
With `Cc1ccc(Oc2ccc(C=C3C(=O)c4ccccc4C3=O)cc2)cc1` [Compound 3D, 2-{[4-(4-methylphenoxy)phenyl]methylidene}-1H-indene-1,3(2H)-dione], in series [1], the “logkw (ACN)” value is 3.5726, the “logkw (MeOH)” value is 5.6763, the “Compliance with the lipophilicity assumption of the Lipiński’s rule (logkw below 5)” value is on record as “do not meet this basic assumption of the Lipiński’s rule” and the “Δ = |logkw-MeOH − logkw-ACN|” value worked out at 2.1037. Moreover, in series [1], the “−S (ACN)” value was determined as 3.5570 and the “−S (MeOH)” value turned out to be 5.4798. Further, in series [2], the “bound fraction (albumin)” value is 97% and the fraction unbound was 0.03. For the same compound, in the series with A549 cells, the “Inhibition of development and division of A549 cells (in words)” value is “most strongly inhibited”.
Consider `COc1ccc(C=C2C(=O)c3ccccc3C2=O)cc1O` [Compound 3E, 2-[(3-hydroxy-4-methoxyphenyl)methylidene]-1H-indene-1,3(2H)-dione], for which, in series [1], the “logkw (ACN)” value is 1.5356, the “logkw (MeOH)” value is 2.2321, the “Δ = |logkw-MeOH − logkw-ACN|” value was 0.6965 and the “−S (ACN)” value is given as 1.9201. In addition, in series [1], the “−S (MeOH)” value is 2.4114. In addition, in series [2], the “bound fraction (albumin)” value is 97% and the fraction unbound is 0.03.
With `O=C1C(=Cc2ccoc2)C(=O)c2ccccc21` [Compound 3H, 2-[(furan-3-yl)methylidene]-1H-indene-1,3(2H)-dione], in series [1], the “logkw (ACN)” value is given as 1.9162, the “logkw (MeOH)” value is on record as 2.5521, the “Δ = |logkw-MeOH − logkw-ACN|” value is 0.6359 and the “−S (ACN)” value is on record as 2.2011. Also, the “−S (MeOH)” value in series [1] is 2.6243. For the same compound, in series [2], the “bound fraction (albumin)” value was 95% and the fraction unbound is 0.05.
As to `O=C1C(=Cc2ccc(N(c3ccccc3)c3ccccc3)cc2)C(=O)c2ccccc21` [Compound 3I, 2-{[4-(diphenylamino)phenyl]methylidene}-1H-indene-1,3(2H)-dione], in series [1], the “logkw (ACN)” value is listed as 3.8489, the “logkw (MeOH)” value was 5.3524, the “Compliance with the lipophilicity assumption of the Lipiński’s rule (logkw below 5)” value is reported as “do not meet this basic assumption of the Lipiński’s rule” and the “Δ = |logkw-MeOH − logkw-ACN|” value is listed as 1.5035. In series [1], the “−S (ACN)” value was found to be 3.7589 and the “−S (MeOH)” value is on record as 5.0483. Besides, in series [2], the “bound fraction (albumin)” value was 83% and the fraction unbound was 0.17.
Take `O=C1C(=Cc2ccc(O)cc2)C(=O)c2ccccc21` [Compound 3J, 2-[(4-hydroxyphenyl)methylidene]-1H-indene-1,3(2H)-dione]: in series [1], the “logkw (MeOH)” value was 2.3814, the “Δ = |logkw-MeOH − logkw-ACN|” value was found to be 1.3880 and the “−S (MeOH)” value was found to be 2.5802. In series [2], the “bound fraction (albumin)” value was 96% and the fraction unbound is 0.04.
Turning to `O=C1C(=CC2=Cc3cc(O)ccc3OC2)C(=O)c2ccccc21` [Compound 3K, 2-[(6-hydroxy-2H-1-benzopyran-3-yl)methylidene]-1H-indene-1,3(2H)-dione], in series [1], the “logkw (ACN)” value is 1.7720, the “logkw (MeOH)” value is 2.9717, the “Δ = |logkw-MeOH − logkw-ACN|” value is listed as 1.1997 and the “−S (ACN)” value came out at 2.1213. In addition, in series [1], the “−S (MeOH)” value came to 3.0667. For the same compound, in series [2], the “bound fraction (albumin)” value is listed as 92% and the fraction unbound is 0.08.
